The source of these data is US8688416B2, “Methods and systems for improved pharmaceutical intervention in coagulation control” (priority 2008, dated 2014).

Assay [1] has as its system INR. As to the kind of experiment: Fit of dose-response equation (4)/(5) for Vitamin K intake to INR of anti-coagulated patients (published data). The class given is in vivo. From the text:
More specifically, the reciprocal of INR will be dose-responsive to Vitamin K in the normal manner, as discussed above, so that Logit (1/INR) will be linear in log (K), where K is the effective total intake of Vitamin K in μg/day. Data on the total intake of Vitamin K are very rarely available in the clinic, but it is practicable to investigate departures from the usual amount when occasion arises, such as when a supplement of Vitamin K is prescribed. Therefore log (K) is expressed as the sum of two terms: log (K)=log (K0)+log (K/K0), where K0 is the average daily intake of Vitamin K.
The dose-response curve described here includes the effect of exogenous Vitamin K by considering the parameter a in equation (1) to be the sum of two terms, a=a′+c log (K0), where a′ is another constant and c is a patient-specific parameter, and by adding a term for the effect of departures from K0. Thus, it follows that Log (INR−1)=bw−a−c log (K/K0) (4) […]
The parameters of this dose-response curve for Vitamin K are derived primarily from published data based on use of synthetic Vitamin K tablets. In such published studies, the average daily intake of Vitamin K was measured in the diet of the subjects at 55 μg. […] The dose was increased each Monday before INR was measured; thus, the INR for Tuesday was one day after increase, etc.

For assay [2], the system named is INR.
Source text: To simplify, a=y log (PCAo)−x, which expresses the fixed contribution of the patient's own clotting factor system; this will result in equation (1) Log (INR−1)=bw−a (1)
Consequently, the patient-specific parameters are now a and b. […] In the absence of further information, a is assumed to be a constant characteristic of the patient, but as will be shown below, also includes the effects of the intake of Vitamin K on the patient's INR, whose effects can be represented by adding another term (see below). It should be pointed out that Equation (1) is a proposition, not a definition, because it specifies what value of the INR will be observed, given values for a, b and w. Furthermore, it should be appreciated that the value predicted for a particular patient thus depends only on w regardless of when in the treatment sequence it occurred. […] These two parameters relating INR to effective dose w can be seen as the scale factor for the dose a and the steepness of the dose response b.
In the present invention, an empirical approximation is used to predict the time course of the patient's response to a change in a dose. […] In the case of a patient taking the same dose for an extended time, the “effective dose” equals that regular dose after the stabilization time. The “effective dose” only needs to be calculated when there is a change in dosage and during the stabilization period.
The “effective dose” is calculated by convolving the actual dose with a function of time since the dose was taken. This function represents the effect of a single dose on the INR through time. […] It is assumed that the weighting for a dose taken just once is a triangular function with a slope of k from the time the dose is taken to the time of its maximum effect on INR, followed by a tailing off with a slope of −k. The resulting function for a maintained daily dose is an S-shaped growth function, consisting of two quarter-parabolae, depicted in FIG. 5. […] Here, the half-maximal delay is one unit of time at which the dose has half its maximum effect. When the patient stops taking the drug, the decay is reversed.
The “optimum” dose is the dose expected to yield an INR at the mid-point of the therapeutic range. The effective doses were calculated using a half-maximal delay of 6.4, 6.4 and 9.0 days respectively.
The parameter tmax½ used for this convolution is the time to attain the half-maximal effect for a maintained dose, which is also the time to attain the maximum effect of a single dose.
Where [3] appears, read: patients studied, all taking warfarin, w = daily dosage in milligrams, natural log.

“And” between values parts separate entries of the source, which are not always exact repeats. Equal entries are not always repeated.

Regarding `CC1=C(C/C=C(\C)CCC[C@H](C)CCC[C@H](C)CCCC(C)C)C(=O)c2ccccc2C1=O` [Vitamin K1], the half-time to stabilization entry with INR [1] (effect on INR of effective total daily intake) is “about 1.6 days”.
Consider `CC(=O)CC(c1ccccc1)c1c(O)c2ccccc2oc1=O` (centres unmarked) [warfarin], for which the “time until the INR has stabilized on a constant dose” value in the assay with INR [2] (constant dose) was 13 days and 14 days. In addition, in the assay on INR [2] (setting [3]), the “mean value of a in equation (1), Log (INR-1)=bw-a” value is given as “about 2.8” and the “mean value of b in equation (1) (sensitivity, slope of the dose-response curve)” value was “about 0.54”.
As for Vitamin K, the “average value of patient-specific parameter c in equation (5)” value in the assay on INR [1] (derived from the literature data, K in μg/day, natural log) was 0.43.
